Reference: patent publication US9771333B2, “Quinazoline derivatives as TAM family kinase inhibitors” (SIGNALCHEM LIFESCIENCES CORP., priority 2013, dated 2017)

Experiments:
Format in all cases: biochemical
human Tyro3 = target: T1, human Tyro3 (Homo sapiens, UniProt Q06418); assay: Kinase enzymatic activity assay (33P-radiolabeled phosphate transfer), Tyro3; conditions: recombinant human Tyro3 (455-end), poly(4:1 glu:tyr) substrate, 30 minutes
T1 construct: GST (N); made in house; host or cells: Sf9 insect cells (baculovirus)
T1 sequence (Q06418 455-890 limits assumed): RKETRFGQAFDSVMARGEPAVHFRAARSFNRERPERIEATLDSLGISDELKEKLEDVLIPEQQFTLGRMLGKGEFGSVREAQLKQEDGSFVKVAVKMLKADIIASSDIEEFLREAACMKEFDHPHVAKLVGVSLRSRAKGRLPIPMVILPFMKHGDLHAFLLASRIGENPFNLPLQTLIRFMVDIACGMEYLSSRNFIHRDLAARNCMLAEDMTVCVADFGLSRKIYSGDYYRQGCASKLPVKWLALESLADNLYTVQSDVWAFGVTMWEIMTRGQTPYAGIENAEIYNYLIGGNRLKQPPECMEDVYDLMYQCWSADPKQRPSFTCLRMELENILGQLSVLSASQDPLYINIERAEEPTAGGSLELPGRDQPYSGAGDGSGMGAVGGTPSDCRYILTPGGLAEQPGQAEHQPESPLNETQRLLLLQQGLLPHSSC
Description: (§1) The identification of compounds of the invention as Tyro3, Axl or Mer inhibitors was readily accomplished using the recombinant human Tyro3, Axl and Mer proteins and employing the ^33P-radiolabeled phosphate transfer assay for which the procedure is known to someone skilled in the art or as described in Example 9.
(§2) Recombinant human Tyro3 (455-end, the gene accession number NM_006293), human Axl (473-end, the gene accession number NM_021913) and human Mer (578-872, the gene accession number NM_006343) were independently expressed by baculovirus in Sf9 insect cells using an N-terminal GST tag. The recombinant proteins were stored at −70° C. in a medium containing 50 mM Tris-HCl, pH 7.5, 150 mM NaCl, 10 mM glutathione, 0.1 mM EDTA, 0.25 mM DTT, 0.1 mM PMSF and 25% glycerol. The recombinant proteins were aliquoted into smaller quantities after centrifugation to avoid repeated handling and multiple freeze/thaw cycles for the most favorable performance.
(§3) Kinase Assay Buffer: This buffer solution consisted of the following components: 25 mM MOPS, pH 7.2, 12.5 mM β-glycerol-phosphate, 25 mM MgCl2, 5 mM EGTA, 2 mM EDTA and DTT 0.25 mM which was added prior to use.
(§4) Kinase Dilution Buffer: Kinase Assay Buffer was diluted at a 1:4 ratio (5× dilution) with distilled water.
(§5) [^33P]-ATP assay cocktail: In a designated radioactive working area, a 250 μM [^33P]-ATP assay cocktail was prepared by the addition of the following components: 150 μL of 10 mM ATP stock solution, 100 μL [^33P]-ATP (1 mci/100 μL), and 5.75 mL of kinase assay buffer. This solution was stored in 1 mL aliquots at −20° C.
(§6) ATP stock solution (10 mM): The ATP stock solution was prepared by dissolving 55 mg of ATP in 10 mL of kinase assay buffer. It was stored in 200 μL aliquots at −20° C.
(§7) Active Kinase Stock Solution: The active recombinant kinase protein (0.1 μg/μL) was diluted with Kinase Dilution Buffer and the activity was assayed using a serial dilution method. The specific activity is expressed in nmoL/min/mg.
(§8) Substrates: poly(4:1 glu:tyr) is the substrate used for each kinase Tyro3, Axl and Mer: The peptide substrate was dissolved in water to give the final concentration of 1 mg/mL.
(§9) Test compound solution: Test compound was dissolved in DMSO to obtain a 10 mM solution. The assay solution was prepared by adding 5 μL of this solution to […] of 10% DMSO/water to obtain the final concentration of 50 μM.
(§10) The enzymatic activity of all three kinases was determined as follows. Using a 96-well plate, the wells were divided into three categories: Blank wells, […] and Test wells. In Test wells, 5 μL of the test compound solution and 5 μL of the substrate solution were added. In Control wells, 5 μL of 10% DMSO/water and 5 μL of the substrate solution were added. In Blank wells, 10 μL of 10% DMSO/water was added. To each well was added 10 μL of Active Kinase Stock Solution to make up the volume in each well to 20 μL. All test samples, controls and blanks were run in duplicate. The reaction was initiated by the addition of 5 μL of [^33P]-ATP assay cocktail, bringing the final volume up to 25 μL in every well. The mixture was incubated at room temperature for 30 minutes. The reaction was terminated by transferring 10 μL of the reaction mixture into a Millipore MultiScreen filter plate (cat. number MSPHN6B50). The filter plate was washed in a 1% phosphoric acid solution with constant gentle shaking for 15 minutes and this step was repeated once. After the plate was dried in air, scintillation fluid was added to each well and the radioactivity in each well in CPM was counted by a Microbeta TriLux. The corrected CPM in each test well was determined by subtracting the average value of Blank well values. Percentage of inhibition of the kinase enzymatic activity by the test compound was determined using the following formula: […]
(§11) The IC50 values were determined in a similar way following a serial dilution of the test compound. […]

human Mer = target: T2, human Mer (Homo sapiens, UniProt Q12866); assay: Kinase enzymatic activity assay (33P-radiolabeled phosphate transfer), Mer; conditions: recombinant human Mer (578-872), poly(4:1 glu:tyr) substrate, 30 minutes
T2 construct: GST (N); made in house; host or cells: Sf9 insect cells (baculovirus)
T2 sequence (Q12866 578-872): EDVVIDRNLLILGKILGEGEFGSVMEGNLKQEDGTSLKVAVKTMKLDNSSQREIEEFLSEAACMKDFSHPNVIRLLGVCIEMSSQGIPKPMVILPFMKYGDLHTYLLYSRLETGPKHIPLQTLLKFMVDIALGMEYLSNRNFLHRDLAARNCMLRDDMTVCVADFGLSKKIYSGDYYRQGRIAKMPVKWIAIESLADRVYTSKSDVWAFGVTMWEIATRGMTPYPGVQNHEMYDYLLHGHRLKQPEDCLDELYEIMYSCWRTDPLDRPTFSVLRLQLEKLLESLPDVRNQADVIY
Description: as §1, §2, §3, §4, §5, §6, §7, §8, §9, §10, §11

human Axl = target: T3, human Axl (Homo sapiens, UniProt P30530); assay: Kinase enzymatic activity assay (33P-radiolabeled phosphate transfer), Axl; conditions: recombinant human Axl (473-end), poly(4:1 glu:tyr) substrate, 30 minutes
T3 construct: GST (N); made in house; host or cells: Sf9 insect cells (baculovirus)
T3 sequence (P30530 473-894 limits assumed): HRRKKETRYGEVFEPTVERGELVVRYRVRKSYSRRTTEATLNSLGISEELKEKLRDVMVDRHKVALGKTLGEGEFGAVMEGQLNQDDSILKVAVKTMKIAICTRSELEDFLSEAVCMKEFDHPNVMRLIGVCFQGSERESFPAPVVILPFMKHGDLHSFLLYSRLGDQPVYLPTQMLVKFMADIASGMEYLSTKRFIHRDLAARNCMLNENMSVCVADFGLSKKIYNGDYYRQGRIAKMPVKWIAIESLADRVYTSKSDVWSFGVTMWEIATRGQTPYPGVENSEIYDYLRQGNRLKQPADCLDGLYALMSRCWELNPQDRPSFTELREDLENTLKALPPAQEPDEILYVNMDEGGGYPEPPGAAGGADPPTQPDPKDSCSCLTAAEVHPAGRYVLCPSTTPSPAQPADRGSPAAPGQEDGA
Description: as §1, §2, §3, §4, §5, §6, §7, §8, §9, §10, §11

SMILES | IC50 (human Tyro3) | IC50 (human Mer) | IC50 (human Axl)
CN1CCN(CCOc2cc(OC3CCOCC3)c3c(Oc4ccc(F)cc4Cl)ncnc3c2)CC1 [Example 3, 4-(2-chloro-4-fluorophenoxy)-7-(2-(4-methylpiperazin-1-yl)ethoxy)-5-((tetrahydro-2H-pyran-4-yl)oxy)quinazoline] | 500 to 1000 nM | 1000 to 10000 nM | 1000 to 10000 nM
FC(F)(F)c1csc(Nc2ncnc3cc(OCCCN4CCOCC4)cc(OC4CCOCC4)c23)n1 [Example 2.18, N-(7-(3-morpholinopropoxy)-5-((tetrahydro-2H-pyran-4-yl)oxy)quinazolin-4-yl)-4-(trifluoromethyl)thiazol-2-amine] | > 10000 nM | 1000 to 10000 nM | 500 to 1000 nM
c1nc(Nc2nncs2)c2c(OC3CCOCC3)cc(OCCCN3CCOCC3)cc2n1 [Example 2.19, N-(7-(3-morpholinopropoxy)-5-((tetrahydro-2H-pyran-4-yl)oxy)quinazolin-4-yl)-1,3,4-thiadiazol-2-amine] | 1000 to 10000 nM | 1000 to 10000 nM | < 500 nM
COc1ncnc2cc(OCCOCCN(C)C)cc(OC3CCOCC3)c12 [Example 2.16, 2-(2-((4-methoxy-5-((tetrahydro-2H-pyran-4-yl)oxy)quinazolin-7-yl)oxy)ethoxy)-N,N-dimethylethanamine] | 1000 to 10000 nM | > 10000 nM | < 500 nM
CN1CCC(COc2cc(OC3CCOCC3)c3c(Nc4ncn[nH]4)ncnc3c2)CC1 [Example 8, 7-((1-methylpiperidin-4-yl)methoxy)-5-((tetrahydro-2H-pyran-4-yl)oxy)-N-(1H-1,2,4-triazol-5-yl)quinazolin-4-amine] | > 10000 nM | > 10000 nM | > 10000 nM
FC(F)(F)c1csc(Nc2ncnc3cc(OCCN4CCCCC4)cc(OC4CCOCC4)c23)n1 [Example 2.60, N-(7-(2-(piperidin-1-yl)ethoxy)-5-((tetrahydro-2H-pyran-4-yl)oxy)quinazolin-4-yl)-4-(trifluoromethyl)thiazol-2-amine] | > 10000 nM | < 500 nM | < 500 nM
COc1cc(OCCCN2CCOCC2)cc2ncnc(Oc3cccc(CC(=O)NCc4ccccc4)c3)c12 [Example 2.29, N-benzyl-2-(3-((5-methoxy-7-(3-morpholinopropoxy)quinazolin-4-yl)oxy)phenyl)acetamide] | 1000 to 10000 nM | > 10000 nM | > 10000 nM
CN1CCC(COc2cc(OC3CCOCC3)c3c(Nc4nc(C(F)(F)F)cs4)ncnc3c2)CC1 [Example 2.23, N-(7-((1-methylpiperidin-4-yl)methoxy)-5-((tetrahydro-2H-pyran-4-yl)oxy)quinazolin-4-yl)-4-(trifluoromethyl)thiazol-2-amine] | > 10000 nM | > 10000 nM | < 500 nM
CCN(CC)CCNc1cc(OC2CCOCC2)c2c(Nc3nc(C(F)(F)F)cs3)ncnc2c1 [Example 7, N^7-(2-(diethylamino)ethyl)-5-((tetrahydro-2H-pyran-4-yl)oxy)-N^4-(4-(trifluoromethyl)thiazol-2-yl)quinazoline-4,7-diamine] | > 10000 nM | > 10000 nM | 1000 to 10000 nM
CN1CCN(CCCOc2cc(OC3CCOCC3)c3c(Oc4ccc(F)cc4Cl)ncnc3c2)CC1 [Example 2.63, 4-(2-chloro-4-fluorophenoxy)-7-(3-(4-methylpiperazin-1-yl)propoxy)-5-((tetrahydro-2H-pyran-4-yl)oxy)quinazoline] | < 500 nM | < 500 nM | < 500 nM
CN1CCC(COc2cc(OC3CCOCC3)c3c(Nc4ccon4)ncnc3c2)CC1 [Example 2.61, N-(7-((1-methylpiperidin-4-yl)methoxy)-5-((tetrahydro-2H-pyran-4-yl)oxy)-quinazolin-4-yl)isoxazol-3-amine] | 1000 to 10000 nM | < 500 nM | < 500 nM
CN(C)CCCOc1cc(OC2CCOCC2)c2c(Nc3nc(C(F)(F)F)cs3)ncnc2c1 [Example 2.54, N-(7-(3-(dimethylamino)propoxy)-5-((tetrahydro-2H-pyran-4-yl)oxy)quinazolin-4-yl)-4-(trifluoromethyl)thiazol-2-amine] | > 10000 nM | 1000 to 10000 nM | < 500 nM
Cc1cc(Nc2ncnc3cc(OCCCN4CCOCC4)cc(OC4CCOCC4)c23)on1 [Example 2.35, 3-methyl-N-(7-(3-morpholinopropoxy)-5-((tetrahydro-2H-pyran-4-yl)oxy)quinazolin-4-yl)isoxazol-5-amine] | > 10000 nM | 1000 to 10000 nM | 1000 to 10000 nM
COC(=O)Cc1cccc(Oc2ncnc3cc(OCCN4CCN(C)CC4)cc(OC4CCOCC4)c23)c1 [Example 2.31, methyl 2-(3-((7-(2-(4-methylpiperazin-1-yl)ethoxy)-5-((tetrahydro-2H-pyran-4-yl)oxy)quinazolin-4-yl)oxy)phenyl)acetate] | 500 to 1000 nM | > 10000 nM | 1000 to 10000 nM
COC(=O)c1cccc(Oc2ncnc3cc(OCCCN4CCOCC4)cc(OC)c23)c1 [Example 2.26, methyl 3-((5-methoxy-7-(3-morpholinopropoxy)quinazolin-4-yl)oxy)benzoate] | 1000 to 10000 nM | > 10000 nM | > 10000 nM
CN(C)CCC1CCN(c2cc(OC3CCOCC3)c3c(Nc4nc(C(F)(F)F)cs4)ncnc3c2)CC1 [Example 2.44, N-(7-(4-(2-(dimethylamino)ethyl)piperidin-1-yl)-5-((tetrahydro-2H-pyran-4-yl)oxy)quinazolin-4-yl)-4-(trifluoromethyl)thiazol-2-amine] | 1000 to 10000 nM | – | < 500 nM
